Tests used:
[1] = Cytotoxicity test (SRB), A549; format: cell-based; conditions: human, A549 non-small cell lung cancer cells
In short: (§1)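 Cells seeded at 4000/well in DMEM with 10% FBS, adhered overnight, then treated 72 h at 37° C, 5% CO2 with compound (final DMSO 0.25%). TCA-fixed and stained with SRB, A540 read. IC50 (μM) calculated by Logit method.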

[2] = tested on: arterial ring angiogenesis in rats; test: Inhibitory actions on arterial ring angiogenesis in rats; format: cell-based; conditions: Rattus norvegicus, area covered by micrangiums vs control well, read-out: Inhibitory rate (%); for inhibition at 0.2 µg/mL: 0.2 μg/ml; for inhibition at 1 µg/mL: 1 μg/ml; for inhibition at 5 µg/mL: 5 μg/ml
In short: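 Rat thoracic aorta cut into 1 mm rings, embedded in Matrigel and cultured at 37 °C with compound; medium and drug renewed every 3 days. Microvessel sprouting area imaged by microscopy; inhibition (%) = (control area − drug area)/control area × 100.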

[3] = tested on: human colon cancer HT 29 transplanted tumor; test: Nude mice transplanted tumor test; format: in vivo, female Balb/cA nude mice; set-up: key to d21 Vave ± SD (average tumor volume): tumor volume TV = ½×a×b² (a, b = major, minor diameter), in mm³; conditions: for Dead animal number / inhibition in vivo at 80 mg/kg / d21 Wave ± SD (average bodyweight of nude mice) / d21 Vave ± SD (average tumor volume) / d21 RTV ± SD (relative tumor volume): 80 mg/kg intragastrically each day for 20 days; for Dead animal number: dead/total animals; for inhibition in vivo at 80 mg/kg: Mus musculus, HT-29, po, 504 h, (1−T/C)×100%, read-out: Tumor inhibition rate d21 (%); for inhibition in vivo at 80 mg/kg / d21 Wave ± SD (average bodyweight of nude mice) / d21 Vave ± SD (average tumor volume) / d21 RTV ± SD (relative tumor volume): d21; for d0 Wave ± SD (average bodyweight of nude mice): d0, at grouping before administration (baseline); for d21 Vave ± SD (average tumor volume): HT 29 in nude mice; for d21 RTV ± SD (relative tumor volume): RTV=Vt/V0
In short: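 Female Balb/cA nude mice bearing HT 29 colon tumour fragments in the right axilla, grouped at about 120 mm^3, received 80 mg/kg intragastrically daily for 20 days; vehicle was water with 0.1% Tween 80. Tumour volume (½×a×b^2) measured 2-3 times weekly, expressed as relative tumour volume Vt/V0.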

[4] = tested on: three kinds of tumor cells (A549, Hela, A431); test: Cytotoxicity test, summary over the three tumor cell lines; format: cell-based, human; conditions: compared with positive control Sunitinib
Experimental: Cytotoxicity of the compounds of the present invention was tested with human non-small cell lung cancer cells A549, human cervical cancer Hela cells, human skin cancer cells A431. The test was performed by referring to the method described by Rusnak et al (Rusnak D. W., et al., Cell Prolif., 2007, 40, 580-94).
In Dulbecco's Modified Eagle Medium (DMEM) comprising 10% fetal bovine serum, 2 mM glutamine and non-essential amino acids, cells were cultured at 37° C. in 5% CO2 cell incubator. Trypsin/ethylenediamine tetraacetic acid (EDTA) were used to harvest cells in cell culture bottle. The cells were added to a 96-well cell culture plate, 4000/well (0.1 ml medium), adhering wall overnight, 0.1 ml of the diluted solution of the compounds to be tested was added, the final concentration of DMSO was 0.25%. The cell culture plate was incubated at 37° C., 5% CO2 conditions for 72 h. The change of cellular morphology was observed under microscope, and then 50 μl of 50% (mass/volume) trichloroacetic acid (TCA) was added to each well to fix cells. The final concentration of TCA was 10%. It stood for 5 min, than was placed in 4° C. refrigerator for 1 h, the wells of the culture plate were washed with deionized water for 5 times to remove TCA, drained, dried in air until no wet trace was observed. 100 μl of 0.4% (mass/volume) SRB was added to each well, stood at room temperature for 10 min. The liquid in each well was discarded, and then the wells were washed with 1% acetic acid for 5 times, dried in air, extracted with 150 μl of 10 mM Tris base (trihydroxymethylaminomethane, pH 10.5). The absorption at a wavelength of 540 nm was measured. The IC50 (μM) of the compound was calculated using Logit method.

[5] = Cytotoxicity test (SRB), A431; format: cell-based; conditions: human, A431 skin cancer cells
In short: as §1

[6] = Cytotoxicity test (SRB), Hela; format: cell-based; conditions: human, Hela cervical cancer cells
In short: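 A549, Hela and A431 cells seeded at 4000/well, adhered overnight, then exposed to compound dilutions (final DMSO 0.25%) for 72 h at 37° C., 5% CO2. SRB read-out: absorbance at 540 nm; IC50 (μM) calculated by Logit method.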

Question: What does the source list for CCN(CC)CC(=O)Nc1c(C)[nH]c(/C=C2\C(=O)Nc3ccc(F)cc32)c1C [Compound 20, N-{5-[5-fluoro-2-oxo-1,2-dihydro-indol-(3Z)-ylidenemethyl]-2,4-dimethyl-1H-pyrrol-3-yl}-2-(N,N-diethylamino)acetamide]?
Answer: IC50 at 72 h [1]: > 30 µM; inhibition at 0.2 µg/mL [2]: 98%; inhibition at 1 µg/mL [2]: 100%; inhibition at 5 µg/mL [2]: 100%; Dead animal number [3]: 0/6; Activity of inhibiting HT-29 transplanted tumor in vivo (in words) ([3]; 80 mg/kg, compared with positive control Sunitinib): inhibitory activity comparable to the positive control Sunitinib; inhibition in vivo at 80 mg/kg [3]: 89.4%; d0 Wave ± SD (average bodyweight of nude mice) [3]: 19.6 ± 0.69; d21 Wave ± SD (average bodyweight of nude mice) [3]: 20.3 ± 0.63; d21 Vave ± SD (average tumor volume) ([3]; in mm³ (unit assumed)): 93.5 ± 42.8; d21 RTV ± SD (relative tumor volume) [3]: 0.76 ± 0.32; Cytotoxicity to tumor cells (in words) [4]: certain toxicity to some cells; IC50 at 72 h [5]: > 30 µM; IC50 at 72 h [6]: 5.21 µM

Question: Which results are given for Cc1[nH]c(/C=C2\C(=O)Nc3ccc(F)cc32)c(C)c1NC(=O)CCN1CCOCC1 [Compound 12, N-{5-[5-fluoro-2-oxo-1,2-dihydro-indol-(3Z)-ylidenemethyl]-2,4-dimethyl-1H-pyrrol-3-yl}-3-(morpholin-4-yl)propionamide]?
Answer: IC50 at 72 h [1]: > 30 µM; inhibition at 0.2 µg/mL [2]: 94%; inhibition at 1 µg/mL [2]: 100%; inhibition at 5 µg/mL [2]: 100%; Dead animal number [3]: 0/6; inhibition in vivo at 80 mg/kg [3]: 79.8%; d0 Wave ± SD (average bodyweight of nude mice) [3]: 17.2 ± 0.54; d21 Wave ± SD (average bodyweight of nude mice) [3]: 19.1 ± 0.57; d21 Vave ± SD (average tumor volume) ([3]; in mm³ (unit assumed)): 197.9 ± 48.1; d21 RTV ± SD (relative tumor volume) [3]: 1.45 ± 0.37; Cytotoxicity to tumor cells (in words) [4]: certain toxicity to some cells; IC50 at 72 h [5]: 7.59 µM; IC50 at 72 h [6]: 4.75 µM

Question: Which IC50 at 72 h [1] does the source give for CCN(CC)CCC(=O)Nc1c(C)[nH]c(/C=C2\C(=O)Nc3ccc(Br)cc32)c1C [Compound 3, N-{5-[5-bromo-2-oxo-1,2-dihydro-indol-(3Z)-ylidenemethyl]-2,4-dimethyl-1H-pyrrol-3-yl}-3-(N,N-diethylamino)propionamide] here?
Answer: The IC50 at 72 h was greater than 30 µM.

Question: What about the inhibition at 0.2 µg/mL [2] of the same molecule?
Answer: The inhibition at 0.2 µg/mL was 93%.

Question: And the inhibition at 1 µg/mL [2]?
Answer: Its inhibition at 1 µg/mL is 100%.

Question: And the inhibition at 5 µg/mL [2]?
Answer: The inhibition at 5 µg/mL was 100%.

Question: And the Dead animal number [3]?
Answer: Its Dead animal number is 0/6.

Question: What about the inhibition in vivo at 80 mg/kg [3] of the same molecule?
Answer: Its inhibition in vivo at 80 mg/kg is 86.4%.

Question: And the “d0 Wave ± SD (average bodyweight of nude mice)” value (from here on “d0 Wave ± SD”) [3]?
Answer: Its value is 19.3 ± 0.41.

Question: What about the “d21 Wave ± SD (average bodyweight of nude mice)” value (“d21 Wave ± SD” for short) [3] of the same molecule?
Answer: Its value is 17.3 ± 0.56.

Question: And the “d21 Vave ± SD (average tumor volume)” value ([3]; in mm³ (unit assumed))?
Answer: Its value is 120.6 ± 40.2.

Question: And the “d21 RTV ± SD (relative tumor volume)” value [3]?
Answer: Its value is 0.98 ± 0.36.

Question: And the “Cytotoxicity to tumor cells (in words)” value [4]?
Answer: The value was “certain toxicity to some cells”.

Question: And the IC50 at 72 h [5]?
Answer: The IC50 at 72 h was greater than 30 µM.

Question: And the IC50 at 72 h [6]?
Answer: The IC50 at 72 h was 5.08 µM.

Question: Which IC50 at 72 h [1] does the source give for Cc1[nH]c(/C=C2\C(=O)Nc3ccc(F)cc32)c(C)c1NC(=O)CCN(C)C [Compound 6, N-{5-[5-fluoro-2-oxo-1,2-dihydro-indol-(3Z)-ylidenemethyl]-2,4-dimethyl-1H-pyrrol-3-yl}-3-(N,N-dimethylamino)propionamide] here?
Answer: Its IC50 at 72 h is greater than 30 µM.

Question: What about the inhibition at 0.2 µg/mL [2] of the same molecule?
Answer: Its inhibition at 0.2 µg/mL is 92%.

Question: And the inhibition at 1 µg/mL [2]?
Answer: The inhibition at 1 µg/mL was 100%.

Question: What about the inhibition at 5 µg/mL [2] of the same molecule?
Answer: Its inhibition at 5 µg/mL is 100%.

Question: And the Dead animal number [3]?
Answer: The Dead animal number was 0/6.

Question: And the inhibition in vivo at 80 mg/kg [3]?
Answer: Its inhibition in vivo at 80 mg/kg is 84.7%.

Question: What about the “d0 Wave ± SD” value [3] of the same molecule?
Answer: Its value is 18.7 ± 0.38.

Question: What about the “d21 Wave ± SD” value [3] of the same molecule?
Answer: The value was 20.4 ± 0.49.

Question: What about the “d21 Vave ± SD (average tumor volume)” value ([3]; in mm³ (unit assumed)) of the same molecule?
Answer: Its value is 130.7 ± 37.4.

Question: And the “d21 RTV ± SD (relative tumor volume)” value [3]?
Answer: The value was 1.10 ± 0.38.

Question: What about the “Cytotoxicity to tumor cells (in words)” value [4] of the same molecule?
Answer: Its value is “certain toxicity to some cells”.

Question: And the IC50 at 72 h [5]?
Answer: The IC50 at 72 h was greater than 30 µM.

Question: What about the IC50 at 72 h [6] of the same molecule?
Answer: Its IC50 at 72 h is 8.08 µM.

Question: Which IC50 at 72 h [1] does the source give for CCN(CC)CCS(=O)(=O)Nc1c(C)[nH]c(/C=C2\C(=O)Nc3ccc(F)cc32)c1C [Compound 9, N-{5-[5-fluoro-2-oxo-1,2-dihydro-indol-(3Z)-ylidenemethyl]-2,4-dimethyl-1H-pyrrol-3-yl}-2-(N,N-diethylamino)ethylsulfonamide] here?
Answer: The IC50 at 72 h was greater than 30 µM.

Question: And the inhibition at 0.2 µg/mL [2]?
Answer: The inhibition at 0.2 µg/mL was 93%.

Question: And the inhibition at 1 µg/mL [2]?
Answer: The inhibition at 1 µg/mL was 100%.

Question: And the inhibition at 5 µg/mL [2]?
Answer: The inhibition at 5 µg/mL was 100%.

Question: What about the Dead animal number [3] of the same molecule?
Answer: Its Dead animal number is 0/6.

Question: What about the inhibition in vivo at 80 mg/kg [3] of the same molecule?
Answer: The inhibition in vivo at 80 mg/kg was 63%.

Question: And the “d0 Wave ± SD” value [3]?
Answer: The value was 19.6 ± 0.25.

Question: And the “d21 Wave ± SD” value [3]?
Answer: The value was 21.4 ± 0.38.

Question: And the “d21 Vave ± SD (average tumor volume)” value [3]?
Answer: The value was 328.3 ± 45.4.

Question: And the “d21 RTV ± SD (relative tumor volume)” value [3]?
Answer: The value was 2.66 ± 0.69.

Question: And the “Cytotoxicity to tumor cells (in words)” value [4]?
Answer: Its value is “certain toxicity to some cells”.

Question: And the IC50 at 72 h [5]?
Answer: Its IC50 at 72 h is 8.58 µM.

Question: What about the IC50 at 72 h [6] of the same molecule?
Answer: Its IC50 at 72 h is greater than 30 µM.

Question: What does the source list for C=CC(=O)Nc1c(C)[nH]c(/C=C2\C(=O)Nc3ccc(F)cc32)c1C [Compound 7, N-{5-[5-fluoro-2-oxo-1,2-dihydro-indol-(3Z)-ylidenemethyl]-2,4-dimethyl-1H-pyrrol-3-yl}-acrylamide]?
Answer: IC50 at 72 h [1]: > 30 µM; inhibition at 0.2 µg/mL [2]: 95%; inhibition at 1 µg/mL [2]: 100%; inhibition at 5 µg/mL [2]: 100%; Dead animal number [3]: 0/6; inhibition in vivo at 80 mg/kg [3]: 59.8%; d0 Wave ± SD (average bodyweight of nude mice) [3]: 19.4 ± 0.41; d21 Wave ± SD (average bodyweight of nude mice) [3]: 20.9 ± 0.38; d21 Vave ± SD (average tumor volume) [3]: 359.8 ± 45.4; d21 RTV ± SD (relative tumor volume) [3]: 2.89 ± 1.05; Cytotoxicity to tumor cells (in words) [4]: certain toxicity to some cells; IC50 at 72 h [5]: > 30 µM; IC50 at 72 h [6]: 6.78 µM

From patent US8637681B2, “Pyrrolyl substituted dihydroindol-2-one derivatives, preparation methods and uses thereof” (Qilu Pharmaceutical Co., Ltd., priority 2010, dated 2014)
